Laboratory results reported in US12404262B2 (priority 2021, dated 2025).
Values after ≈ are worked out from the molar mass of the structure shown.

Assays:
[1] = Solubility in simulated intestinal fluids (FaSSIF/FeSSIF); conditions: 25 °C, thermodynamic from solid
[2] = 1.0% DMSO, 24-hour incubation at ambient temperature, maximum theoretical 100 μM; for pH 2 solubility: 0.1N HCl, first value of the cell; for pH 7 solubility: 1×PBS buffer (pH 7.4), second value of the cell
[3] = fasted state simulated intestinal fluid (FaSSIF), fassif
[4] = fed state simulated intestinal fluid (FeSSIF), fessif

| solubility [1, 3] [µg/mL] | solubility [1, 4] [µg/mL] | pH 2 solubility [2] [μM] | pH 7 solubility [2] [μM] | SMILES |
| --- | --- | --- | --- | --- |
| 13 (≈ 12.2 µM) | 89 (≈ 83.2 µM) | 23 | 2 | C[C@@H](N)C(=O)OCN(c1nn(CC(F)(F)F)c2c(-c3ccc(C#CC(C)(C)S(C)(=O)=O)nc3[C@H](Cc3cc(F)cc(F)c3)NC(=O)Cn3nc(C(F)(F)F)c4c3C(F)(F)[C@@H]3C[C@H]43)ccc(Cl)c12)S(C)(=O)=O [Compound 26, (N-(4-chloro-7-(2-((S)-1-(2-((3bS,4aR)-5,5-difluoro-3-(trifluoromethyl)-3b,4,4a,5-tetrahydro-1H-cyclopropa[3,4]cyclopenta[1,2-c]pyrazol-1-yl)acetamido)-2-(3,5-difluorophenyl)ethyl)-6-(3-methyl-3-(methylsulfonyl)but-1-yn-1-yl)pyridin-3-yl)-1-(2,2,2-trifluoroethyl)-1H-indazol-3-yl)methylsulfonamido)methyl D-alaninate] |
| 6 (≈ 5.69 µM) | 120 (≈ 114 µM) | 54 | 4 | CC(C)(C#Cc1ccc(-c2ccc(Cl)c3c(N(COC(=O)CN)S(C)(=O)=O)nn(CC(F)(F)F)c23)c([C@H](Cc2cc(F)cc(F)c2)NC(=O)Cn2nc(C(F)(F)F)c3c2C(F)(F)[C@@H]2C[C@H]32)n1)S(C)(=O)=O [Compound 29, (N-(4-chloro-7-(2-((S)-1-(2-((3bS,4aR)-5,5-difluoro-3-(trifluoromethyl)-3b,4,4a,5-tetrahydro-1H-cyclopropa[3,4]cyclopenta[1,2-c]pyrazol-1-yl)acetamido)-2-(3,5-difluorophenyl)ethyl)-6-(3-methyl-3-(methylsulfonyl)but-1-yn-1-yl)pyridin-3-yl)-1-(2,2,2-trifluoroethyl)-1H-indazol-3-yl)methylsulfonamido)methyl glycinate] |
| 10 (≈ 9.23 µM) | 10 (≈ 9.23 µM) | 1 | 9 | CN(CC(=O)O)C(=O)N(c1nn(CC(F)(F)F)c2c(-c3ccc(C#CC(C)(C)S(C)(=O)=O)nc3[C@H](Cc3cc(F)cc(F)c3)NC(=O)Cn3nc(C(F)(F)F)c4c3C(F)(F)[C@@H]3C[C@H]43)ccc(Cl)c12)S(C)(=O)=O [Compound 44, N-((4-chloro-7-(2-((S)-1-(2-((3bS,4aR)-5,5-difluoro-3-(trifluoromethyl)-3b,4,4a,5-tetrahydro-1H-cyclopropa[3,4]cyclopenta[1,2-c]pyrazol-1-yl)acetamido)-2-(3,5-difluorophenyl)ethyl)-6-(3-methyl-3-(methylsulfonyl)but-1-yn-1-yl)pyridin-3-yl)-1-(2,2,2-trifluoroethyl)-1H-indazol-3-yl)(methylsulfonyl)carbamoyl)-N-methylglycine] |
| 14 (≈ 12.8 µM) | 1 (≈ 0.911 µM) | 1 | 20 | CN(CCC(=O)O)C(=O)N(c1nn(CC(F)(F)F)c2c(-c3ccc(C#CC(C)(C)S(C)(=O)=O)nc3[C@H](Cc3cc(F)cc(F)c3)NC(=O)Cn3nc(C(F)(F)F)c4c3C(F)(F)[C@@H]3C[C@H]43)ccc(Cl)c12)S(C)(=O)=O [Compound 45, 3-(3-(4-chloro-7-(2-((S)-1-(2-((3bS,4aR)-5,5-difluoro-3-(trifluoromethyl)-3b,4,4a,5-tetrahydro-1H-cyclopropa[3,4]cyclopenta[1,2-c]pyrazol-1-yl)acetamido)-2-(3,5-difluorophenyl)ethyl)-6-(3-methyl-3-(methylsulfonyl)but-1-yn-1-yl)pyridin-3-yl)-1-(2,2,2-trifluoroethyl)-1H-indazol-3-yl)-1-methyl-3-(methylsulfonyl)ureido)propanoic acid] |
| 9 (≈ 8.1 µM) | 3 (≈ 2.7 µM) | 1 | 10 | CN(CCCC(=O)O)C(=O)N(c1nn(CC(F)(F)F)c2c(-c3ccc(C#CC(C)(C)S(C)(=O)=O)nc3[C@H](Cc3cc(F)cc(F)c3)NC(=O)Cn3nc(C(F)(F)F)c4c3C(F)(F)[C@@H]3C[C@H]43)ccc(Cl)c12)S(C)(=O)=O [Compound 46, 4-(3-(4-chloro-7-(2-((S)-1-(2-((3bS,4aR)-5,5-difluoro-3-(trifluoromethyl)-3b,4,4a,5-tetrahydro-1H-cyclopropa[3,4]cyclopenta[1,2-c]pyrazol-1-yl)acetamido)-2-(3,5-difluorophenyl)ethyl)-6-(3-methyl-3-(methylsulfonyl)but-1-yn-1-yl)pyridin-3-yl)-1-(2,2,2-trifluoroethyl)-1H-indazol-3-yl)-1-methyl-3-(methylsulfonyl)ureido)butanoic acid] |
| 758 (≈ 681 µM) | 370 (≈ 332 µM) | 1 | 62 | CC(C)(C#Cc1ccc(-c2ccc(Cl)c3c(N(C(=O)NC(C(=O)O)C(=O)O)S(C)(=O)=O)nn(CC(F)(F)F)c23)c([C@H](Cc2cc(F)cc(F)c2)NC(=O)Cn2nc(C(F)(F)F)c3c2C(F)(F)[C@@H]2C[C@H]32)n1)S(C)(=O)=O [Compound 53, 2-(3-(4-chloro-7-(2-((S)-1-(2-((3bS,4aR)-5,5-difluoro-3-(trifluoromethyl)-3b,4,4a,5-tetrahydro-1H-cyclopropa[3,4]cyclopenta[1,2-c]pyrazol-1-yl)acetamido)-2-(3,5-difluorophenyl)ethyl)-6-(3-methyl-3-(methylsulfonyl)but-1-yn-1-yl)pyridin-3-yl)-1-(2,2,2-trifluoroethyl)-1H-indazol-3-yl)-3-(methylsulfonyl)ureido)malonic acid] |
| 1080 (≈ 930 µM) | 1590 (≈ 1370 µM) | 3 | 42 | CC(C)(C#Cc1ccc(-c2ccc(Cl)c3c(N(C(=O)NC(CP(=O)(O)O)C(=O)O)S(C)(=O)=O)nn(CC(F)(F)F)c23)c([C@H](Cc2cc(F)cc(F)c2)NC(=O)Cn2nc(C(F)(F)F)c3c2C(F)(F)[C@@H]2C[C@H]32)n1)S(C)(=O)=O (stereo partly drawn) [Compound 56, 2-(3-(4-chloro-7-(2-((S)-1-(2-((3bS,4aR)-5,5-difluoro-3-(trifluoromethyl)-3b,4,4a,5-tetrahydro-1H-cyclopropa[3,4]cyclopenta[1,2-c]pyrazol-1-yl)acetamido)-2-(3,5-difluorophenyl)ethyl)-6-(3-methyl-3-(methylsulfonyl)but-1-yn-1-yl)pyridin-3-yl)-1-(2,2,2-trifluoroethyl)-1H-indazol-3-yl)-3-(methylsulfonyl)ureido)-3-phosphonopropanoic acid] |
| 813 (≈ 740 µM) | 120 (≈ 109 µM) | 1 | 8 | CC(C)(C#Cc1ccc(-c2ccc(Cl)c3c(N(C(=O)N[C@@H](CO)C(=O)O)S(C)(=O)=O)nn(CC(F)(F)F)c23)c([C@H](Cc2cc(F)cc(F)c2)NC(=O)Cn2nc(C(F)(F)F)c3c2C(F)(F)[C@@H]2C[C@H]32)n1)S(C)(=O)=O [Compound 58, ((4-chloro-7-(2-((S)-1-(2-((3bS,4aR)-5,5-difluoro-3-(trifluoromethyl)-3b,4,4a,5-tetrahydro-1H-cyclopropa[3,4]cyclopenta[1,2-c]pyrazol-1-yl)acetamido)-2-(3,5-difluorophenyl)ethyl)-6-(3-methyl-3-(methylsulfonyl)but-1-yn-1-yl)pyridin-3-yl)-1-(2,2,2-trifluoroethyl)-1H-indazol-3-yl)(methylsulfonyl)carbamoyl)-L-serine] |
| 798 (≈ 677 µM) | 819 (≈ 694 µM) | 2 | 21 | CC(C)(C#Cc1ccc(-c2ccc(Cl)c3c(N(C(=O)N[C@@H](COP(=O)(O)O)C(=O)O)S(C)(=O)=O)nn(CC(F)(F)F)c23)c([C@H](Cc2cc(F)cc(F)c2)NC(=O)Cn2nc(C(F)(F)F)c3c2C(F)(F)[C@@H]2C[C@H]32)n1)S(C)(=O)=O [Compound 59, N-((4-chloro-7-(2-((S)-1-(2-((3bS,4aR)-5,5-difluoro-3-(trifluoromethyl)-3b,4,4a,5-tetrahydro-1H-cyclopropa[3,4]cyclopenta[1,2-c]pyrazol-1-yl)acetamido)-2-(3,5-difluorophenyl)ethyl)-6-(3-methyl-3-(methylsulfonyl)but-1-yn-1-yl)pyridin-3-yl)-1-(2,2,2-trifluoroethyl)-1H-indazol-3-yl)(methylsulfonyl)carbamoyl)-O-phosphono-L-serine] |
| 364 (≈ 311 µM) | 756 (≈ 645 µM) | 1 | 14 | CC(C)(C#Cc1ccc(-c2ccc(Cl)c3c(N(C(=O)N[C@@H](COC(=O)C(=O)O)C(=O)O)S(C)(=O)=O)nn(CC(F)(F)F)c23)c([C@H](Cc2cc(F)cc(F)c2)NC(=O)Cn2nc(C(F)(F)F)c3c2C(F)(F)[C@@H]2C[C@H]32)n1)S(C)(=O)=O [Compound 60, O-(carboxycarbonyl)-N-((4-chloro-7-(2-((S)-1-(2-((3bS,4aR)-5,5-difluoro-3-(trifluoromethyl)-3b,4,4a,5-tetrahydro-1H-cyclopropa[3,4]cyclopenta[1,2-c]pyrazol-1-yl)acetamido)-2-(3,5-difluorophenyl)ethyl)-6-(3-methyl-3-(methylsulfonyl)but-1-yn-1-yl)pyridin-3-yl)-1-(2,2,2-trifluoroethyl)-1H-indazol-3-yl)(methylsulfonyl)carbamoyl)-L-serine] |
| 425 (≈ 377 µM) | 140 (≈ 124 µM) | 1 | 10 | CC(C)(C#Cc1ccc(-c2ccc(Cl)c3c(N(C(=O)N[C@](C)(CO)CC(=O)O)S(C)(=O)=O)nn(CC(F)(F)F)c23)c([C@H](Cc2cc(F)cc(F)c2)NC(=O)Cn2nc(C(F)(F)F)c3c2C(F)(F)[C@@H]2C[C@H]32)n1)S(C)(=O)=O [Compound 66, (S)-3-(3-(4-chloro-7-(2-((S)-1-(2-((3bS,4aR)-5,5-difluoro-3-(trifluoromethyl)-3b,4,4a,5-tetrahydro-1H-cyclopropa[3,4]cyclopenta[1,2-c]pyrazol-1-yl)acetamido)-2-(3,5-difluorophenyl)ethyl)-6-(3-methyl-3-(methylsulfonyl)but-1-yn-1-yl)pyridin-3-yl)-1-(2,2,2-trifluoroethyl)-1H-indazol-3-yl)-3-(methylsulfonyl)ureido)-4-hydroxy-3-methylbutanoic acid] |
